Results on 59 molecules are retold here after the METLIN SMRT retention time set (Domingo-Almenara et al. 2019).

This series can be described thus: gradient 5% acetonitrile 3 min, to 50% in 2 min, to 85% in 15 min, held 3 min, 100 µL/min. The conditions noted are these: column: Zorbax Extend-C18 2.1 x 50 mm; eluents: water / acetonitrile, 0.1% formic acid. The essentials: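 Pure standards were run in mixtures of ~100 molecules by HPLC coupled to a quadrupole time-of-flight mass spectrometer. The column was a Zorbax Extend-C18 (2.1 × 50 mm, 1.8 μm) at 100 μL/min, with water and acetonitrile each containing 0.1% formic acid, in positive and negative ionization mode. Dead and dwell volumes were 40 μL and 900 μL. Retention time was taken from computationally picked adduct peaks, each manually inspected, with data collected over 3 months.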
As to `CCn1cnc(S(=O)(=O)N2CCCC(C(=O)NCc3ccccc3C)C2)c1` (centres undefined), the RP-LC retention time stood at 726 s.

Molecule `CCCN(C)c1ccc2ncc(=O)n(C)c2n1` displayed an RP-LC retention time of 923 s.

Turning to `Cc1cccc(NC(=O)Cn2nc(N3CCCC3)c3ccccc3c2=O)c1C`, the RP-LC retention time was determined as 927 s.

As to `CC(C)(C)C(=O)Nc1ccc2nc(N3CCN(c4ccccc4)CC3)cc(C(=O)O)c2c1`, the RP-LC retention time came out at 683 s.

In turn, `C=CCn1c(=O)c2ccccc2n(Cc2nc(-c3ccc(F)c(Cl)c3)no2)c1=O` displayed an RP-LC retention time of 1140 s.

The molecule `O=S(=O)(Cc1ccccc1F)N1CCC(c2noc(-c3cccnc3)n2)C1` (centres undefined) registered an RP-LC retention time of 826 s.

In turn, `O=C(CCCn1c(=O)c2cccn2c2ccc(F)cc21)N1CCN(C(=O)c2ccco2)CC1` gave an RP-LC retention time of 745 s.

For `CSc1ccc(NC(=O)NC2CCN(c3ccc(F)cc3)C2=O)cc1` (centres undefined), the RP-LC retention time came out at 847 s.

Molecule `O=C1NCC2(CCN(CCc3ccccc3)CC2)O1` registered an RP-LC retention time of 579 s.

In the case of `CCCN1C(=O)C(C)(C(=O)NCc2ccccc2Cl)Oc2cccnc21` (centres undefined), the RP-LC retention time was determined as 942 s.

In the case of `O=C(Nc1ccccc1-c1nc2ccccc2[nH]1)c1cc2ccccc2o1`, the RP-LC retention time came out at 1080 s.

As to `OC(COc1ccc(Cl)cc1)CN1CCN(c2cccc(Cl)c2)CC1` (centres undefined), the RP-LC retention time amounted to 866 s.

`Cc1ccccc1-c1cn2ccn(-c3ccc(Cl)cc3)c(=O)c2n1` displayed an RP-LC retention time of 883 s.

As for `O=C(NC1CCCCC1)c1cc2n(n1)CCCN(Cc1ccccc1)C2=O`, the RP-LC retention time came out at 891 s.

For `Cc1noc(CNC(=O)c2n[nH]c3ccccc23)n1`, the RP-LC retention time was 626 s.

In turn, `O=C(NCCc1csc(-c2ccccc2)n1)C1CCN(C(=O)COc2ccccc2)CC1` showed an RP-LC retention time of 806 s.

`CCOC(=O)c1cccc(Nc2c(C(=O)N3CCCCC3C)cnc3nc(C)ccc23)c1` (centres undefined) returned an RP-LC retention time of 666 s.

For `CCOC(=O)c1cc(C2CC2)nc2c1c(=O)n(Cc1cccc(C(F)(F)F)c1)c(=O)n2C`, the RP-LC retention time was 1270 s.

Take `CS(=O)(=O)c1ccc2nc(NC(=O)CN3C(=O)CCC3=O)sc2c1`: the RP-LC retention time was 582 s.

`CC1CCN(S(=O)(=O)c2ccc3c(c2)CCCC(=O)N3CC(=O)N2CCN(C)CC2)CC1` registered an RP-LC retention time of 656 s.

As for `CCC(C)NC(=O)NCCC1CCN(S(=O)(=O)c2ccc(C)cc2)CC1` (centres undefined), the RP-LC retention time came out at 861 s.

The molecule `CCCNc1cc(N2CCC(CCC(=O)N3CCN(c4ncccn4)CC3)CC2)ncn1` yielded an RP-LC retention time of 632 s.

With `Cc1cc2n(n1)CCCN2C(=O)CCC(=O)N1CCN(c2ccccc2)CC1`, the RP-LC retention time worked out at 678 s.

On to `O=C(CCc1ccc2c(c1)CN(C(=O)C1CC1)CCO2)NC1CCS(=O)(=O)C1` (centres undefined), for which the RP-LC retention time stood at 617 s.

In turn, `Cc1sc(-c2nnc(C3CCC3)o2)cc1NC(=O)Cc1ccc(F)cc1` had an RP-LC retention time of 1020 s.

`O=S(=O)(Cc1ccccc1)N1CCC(OCCOCc2ccccc2)CC1` yielded an RP-LC retention time of 1040 s.

The molecule `Cc1oc(C2CCN(C(=O)c3ccc(C#N)cc3)CC2)nc1C(=O)N(C)C` showed an RP-LC retention time of 654 s.

Regarding `Cc1noc(C)c1-c1ccc(S(=O)(=O)N2CCCCC2)cc1`, the RP-LC retention time worked out at 961 s.

For `Cc1ccc2c(=O)c(C(=O)N3CCCC3)cn(CC(=O)Nc3cc(F)ccc3F)c2n1`, the RP-LC retention time was found to be 703 s.

Molecule `Cc1cc(C(=O)NCC2CCCO2)c2cccc(C)c2n1` (centres undefined) had an RP-LC retention time of 616 s.

`O=C(NCCCN1CCCC1)c1ccc(CS(=O)Cc2ccccc2Cl)o1` (centres undefined) came in with an RP-LC retention time of 548 s.

`O=C(c1cccs1)N1CCC(c2noc(-c3cnccn3)n2)C1` (centres undefined) gave an RP-LC retention time of 678 s.

For `CCn1c(SCC(=O)Nc2ccc3c(c2)OCO3)nnc1-c1cn(C)nc1-c1ccc(Cl)cc1`, the RP-LC retention time came out at 819 s.

On to `Cn1cnc(S(=O)(=O)N2CCC(c3noc(-c4ccncc4)n3)C2)c1` (centres undefined), for which the RP-LC retention time is 628 s.

The molecule `COC(=O)C(C)NC(=O)N1CCC2(CC1)NC(=O)c1ccccc1O2` (centres undefined) came in with an RP-LC retention time of 621 s.

The molecule `COc1ccc(-c2nc(Cn3ccn4nc(-c5ccc(OC)c(OC)c5)cc4c3=O)c(C)o2)cc1` yielded an RP-LC retention time of 968 s.

For `CC(C)C(=O)Nc1cccnc1`, the RP-LC retention time amounted to 583 s.

`CCOC(=O)c1ccc(NS(=O)(=O)c2ccc(-c3c(C)noc3C)cc2)cc1` gave an RP-LC retention time of 941 s.

With `CCN1CCN(CCCNC(=O)c2c(-c3ccc(Br)s3)noc2C)CC1`, the RP-LC retention time amounted to 594 s.

`CC(Cc1ccco1)NC(=O)C1CCN(S(=O)(=O)c2ccc3c(c2)sc(=O)n3C)CC1` (centres undefined) yielded an RP-LC retention time of 807 s.

`O=C(Nc1ccccc1Cl)N1CCC(n2c(C(F)(F)F)nc3cccnc32)CC1` displayed an RP-LC retention time of 912 s.

Molecule `Cc1cc(N2CCN(S(=O)(=O)c3cc(F)ccc3C)CC2)nc(N2CCCCC2)n1` yielded an RP-LC retention time of 785 s.

In the case of `COc1ccc(NC(=O)Cn2c(=O)nc(N3CCC(C)CC3)c3ccccc32)cc1OC`, the RP-LC retention time worked out at 768 s.

Molecule `CN(C)c1cncnc1-n1cc(NC(=O)CCc2ccccc2)cn1` returned an RP-LC retention time of 624 s.

In turn, `CCOC(=O)C1=C(CN(C)Cc2ccccc2)NC(=O)NC1c1ccc(OC)cc1` (centres undefined) yielded an RP-LC retention time of 578 s.

As for `CCc1nc(-c2cccc(-c3noc(CNC(=O)Cc4ccccc4)n3)c2)cs1`, the RP-LC retention time is 1000 s.

In turn, `CCNC(=O)c1sc2nc(-c3ccc(F)cc3)c(NCCOC)n2c1C` returned an RP-LC retention time of 777 s.

As for `CC(=O)OC1CCN(C(=O)NC(C)C)CC1`, the RP-LC retention time came out at 621 s.

Turning to `Cc1ccc2nc(CNC(=O)C3CCN(S(=O)(=O)c4ccc5c(c4)sc(=O)n5C)CC3)[nH]c2c1`, the RP-LC retention time is 636 s.

`CCN1CCN(CCNC(=O)c2cc3n(n2)CCCN(Cc2ccc(Cl)cc2)C3=O)CC1` showed an RP-LC retention time of 610 s.

`COCc1cc(=O)n(CC(=O)Nc2ccc(C)cc2)c(N)n1`: the RP-LC retention time is 595 s.

As for `Cc1cc2nn(CC(=O)Nc3ccc(C)c(C)c3)c(=O)n2c(-c2ccccc2)n1`, the RP-LC retention time was 868 s.

Regarding `COc1ccccc1N1CCN(c2cc(SCC(=O)Nc3c(C)cccc3C)ncn2)CC1`, the RP-LC retention time is 958 s.

Regarding `COc1ccc(OC)c(NC(=O)Cn2c(C)cc(-c3nnc(C)o3)c2C)c1`, the RP-LC retention time was found to be 776 s.

`Cn1c(N2CCCC(C(=O)NC3CCN(Cc4ccccc4)CC3)C2)cc(=O)n(C)c1=O` (centres undefined) gave an RP-LC retention time of 576 s.

`O=[N+]([O-])c1ccc(Sc2ncccn2)c([N+](=O)[O-])c1`: the RP-LC retention time was found to be 900 s.

Turning to `Cc1ccc(CN2CCC(CNC(=O)C3CCCN(c4cc(=O)n(C)c(=O)n4C)C3)CC2)cc1` (centres undefined), the RP-LC retention time turned out to be 602 s.

Take `CCc1ccc(N2CCn3c2nc2c3c(=O)n(CC(=O)O)c(=O)n2C)cc1`: the RP-LC retention time worked out at 785 s.

Consider `COc1ccc(Cl)cc1C(=O)N1CCC(c2nc3ccncc3n2C(C)C)C1` (centres undefined), for which the RP-LC retention time stood at 543 s.
